Data set [1] concerns the target T1, endothelin receptor A (ETA) (Sus scrofa, UniProt Q29010).
T1 construct: A membrane fraction prepared from the porcine heart; from tissue; host or cells: porcine heart membrane fraction
T1 sequence (Q29010 21-427): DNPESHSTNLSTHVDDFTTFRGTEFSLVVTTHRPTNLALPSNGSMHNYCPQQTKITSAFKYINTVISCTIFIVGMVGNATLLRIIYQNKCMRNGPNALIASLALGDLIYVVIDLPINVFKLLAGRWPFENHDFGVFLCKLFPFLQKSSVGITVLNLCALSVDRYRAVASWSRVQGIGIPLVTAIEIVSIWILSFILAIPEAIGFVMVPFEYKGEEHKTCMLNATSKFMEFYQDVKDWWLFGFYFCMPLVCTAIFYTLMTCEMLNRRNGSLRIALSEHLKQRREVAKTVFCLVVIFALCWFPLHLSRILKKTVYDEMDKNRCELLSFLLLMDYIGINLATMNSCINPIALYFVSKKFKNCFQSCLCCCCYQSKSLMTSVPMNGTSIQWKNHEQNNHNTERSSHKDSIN
The experiment in a line: Assay of affinity for receptor (1): binding activity on ETA receptor, 125I-labeled endothelin-1, porcine heart membrane fraction. The conditions noted are these: specific activity, taking the binding activity of control cyclo[-D-Glu-Ala-D-aIle-Leu-D-Trp-] on receptor A as 1.0, 25°C, 1 hour. Details: key: relative specific activity; reference cyclic pentapeptide ETA binding = 1.0. Put shortly: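 Porcine heart membranes (0.15 mg/ml) incubated with 125I-endothelin-1 and test peptide for 1 h at 25°C, then centrifuged; pellet-bound radioactivity counted by gamma counter. Values given as specific activity relative to reference cyclo[-D-Glu-Ala-D-aIle-Leu-D-Trp-], set at 1.0.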

For data set [2], the target named is T2, NK2 receptor (Bos taurus, UniProt P05363).
T2 construct: The membrane fraction containing the receptor was prepared from the inner wall of the bovine third stomach; tissue Kyoto Chuo Chikusan Fukuseibutsu Oroshi Kyoukai (tissue); host or cells: inner wall of bovine third stomach, membrane fraction
T2 sequence (P05363 1-384): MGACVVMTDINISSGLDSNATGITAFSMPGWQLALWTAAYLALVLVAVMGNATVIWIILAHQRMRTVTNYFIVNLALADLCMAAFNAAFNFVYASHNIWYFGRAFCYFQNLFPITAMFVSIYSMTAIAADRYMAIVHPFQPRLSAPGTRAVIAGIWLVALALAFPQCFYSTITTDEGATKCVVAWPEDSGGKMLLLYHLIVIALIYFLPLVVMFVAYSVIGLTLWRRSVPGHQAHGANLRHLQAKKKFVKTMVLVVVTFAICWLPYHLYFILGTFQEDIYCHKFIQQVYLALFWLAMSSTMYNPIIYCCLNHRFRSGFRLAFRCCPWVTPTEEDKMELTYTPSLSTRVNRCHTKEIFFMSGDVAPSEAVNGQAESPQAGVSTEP
The experiment in a line: Assay of affinity for receptor (3): binding inhibiting activity on NK2 receptor, 125I-neurokinin A, membrane fraction of bovine third stomach inner wall. The note with it: 125I-NKA, 25°C, 3 hours. The protocol:
Assay of Affinity for Receptor (3) ... Binding Inhibiting Activity on NK2 Receptor
The method of Paul L. M. Van Giersbergen et al. [Proc. Natl. Acad. Sci. U.S.A., 88, 1661 (1991) was modified for this assay. The membrane fraction containing the receptor was prepared from the inner wall of the bovine third stomach (purchased from Kyoto Chuo Chikusan Fukuseibutsu Oroshi Kyoukai).
The inner wall of the bovine third stomach stored at-80°C was cut to 1 cm X 1 cm or less, and disrupted in 3 liters/kg of 50 mM Tris-HCl buffer (pH 7.4) supplemented with 120 mM sodium chloride, 5 mM potassium chloride, 0.02% BSA and 5% sucrose, using a polytron homogenizer (Kinematika, Germany). Then, the disrupted product was centrifuged at 1,000 X g for 10 minutes. The supernatant was further centrifuged at 45,000 X g for 20 minutes. The precipitate was suspended in 200 ml of 50 mM Tris-HCl buffer (pH 7.4) supplemented with 300 mM potassium chloride, 10 mM ethylenediaminetetraacetic acid, 0.1 mM phenylmethylsulfonium fluoride and 0.02% BSA, and gently stirred under ice cooling for 60 minutes. The suspension was centrifuged at 45,000 X g for 20 minutes. The precipitate was washed with 200 ml of 50 mM Tris-HCl buffer (pH 7.4), and stored in the frozen state at -40°C as a receptor sample.
This sample was suspended in a reaction buffer solution [50 mM Tris-HCl buffer (pH 7.4), 0.02% bovine serum albumin and 4 mM manganese chloride] so as to give a protein concentration of 0.7 mg/ml, and 100 µl thereof was used for reaction. A test sample and ^125I-NKA (0.61 KBq, ^125I-neurokinin A, 81.4 TBq/mmol, Du Pont/NEN Research Products, U.S.A.) were also added, and reacted in 0.2 ml of the reaction buffer solution at 25°C for 3 hours. The reaction mixture was rapidly filtered through a glass filter (GF/B, Whatman, U.S.A.) using a cell harvester (Type 290PHD, Cambridge Technology Inc.) to terminate the reaction, and washed 3 times with 250 µl of 50 mM Tris-HCl buffer (pH 7.4) supplemented with 0.02% bovine serum albumin. The radioactivity left on the filter was measured with a gamma-ray counter. Results are shown in Table 1 as the binding inhibiting activity (IC50, unit: µM) on the NK2 receptor.

Data set [3] concerns ETB. In words: ETB radio receptor assay *2, 125I-endothelin-1, guinea pig kidney crude membrane fraction. The conditions noted are these: relative activity, 37 °C, 90 minutes. In kind it is binding, Guinea pigs. Put shortly: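 Radioligand binding used crude guinea pig kidney membranes (2.1 µg protein) with 740 Bq 125I-endothelin-1. Incubation was 90 min at 37 °C in 50 mM Tris-HCl pH 7.4, 0.1 mM PMSF, 1 mM EDTA, 0.2% BSA. Bound radioactivity was collected by GF/B filtration and measured by gamma counting.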

The conditions of data set [4]: amide bond, DCC/HONB (active ester), TEA, DMF, 16.0 h, 4 steps.
The conditions of data set [5]: amide bond; 18-membered ring; HONB/DCC preactivation; HCl; DIEA; DMF; 4.75 mM; 3 steps.
The conditions of data set [6]: amide bond; 18-membered ring; HONB/DCC (preactivation); HCl/dioxane; TEA; DMF; 9.5 mM; 3 steps.

Read-outs that look alike come from different tables or passages of the source. Non-standard residues stand in square brackets, D forms with d. Residues, ends and D or L forms follow the SMILES beside them. Groups on a side chain read outwards from the residue. *: point of attachment. NHPhenethyl = c1ccc(CCN*)cc1; X2 = c1ccc2c(c1)CCN2*; NHBn = c1ccc(CN*)cc1

As a reminder, the IC50 is the point on the concentration scale where inhibition reaches its midpoint. In the case of `CC(C)C[C@@H]1NC(=O)[C@H](CC(=O)O)NC(=O)[C@@H](CC(=O)O)NC(=O)[C@@H](Cc2c[nH]c3ccccc23)NC(=O)[C@H](CC(C)C)NC(=O)[C@@H](CC(C)C)NC1=O` [Example 32, Cyclo[-D-Asp-Asp-Leu-D-Leu-Leu-D-Trp-]] (cyclo(DL[dL]L[dW][dD])), the “Binding Activity on ET Receptor (R. act.) ETA” value in data set [1] came out at 4.0. Moreover, the IC50 in data set [2] was found to be 2.6 µM. Also, the “Binding Activity on ET Receptor (R. act.) ETB*2” value in data set [3] is recorded as 7.7.
For the compound `CC(C)C[C@@H]1NC(=O)[C@@H](CC(C)C)NC(=O)[C@H](Cc2c[nH]c3ccccc23)NC(=O)[C@H](CC(=O)O)NC(=O)[C@@H](CC(=O)O)NC(=O)[C@@H](Cc2c[nH]c3ccccc23)NC1=O` [Example 33, Cyclo[-D-Asp-Asp-Trp-D-Leu-Leu-D-Trp-]] (cyclo(DW[dL]L[dW][dD])), in data set [1], the “Binding Activity on ET Receptor (R. act.) ETA” value came to 2.9. In data set [2], the concentration for half-maximal inhibition (IC50) was found to be 0.35 µM. In data set [3], the “Binding Activity on ET Receptor (R. act.) ETB*2” value was determined as 5.6.
`CC(C)C[C@@H]1NC(=O)[C@@H](CC(C)C)NC(=O)[C@H](CC(=O)O)NC(=O)[C@H](CCC(=O)N2CCc3ccccc32)NC(=O)[C@@H](CC(=O)O)NC(=O)[C@@H](Cc2c[nH]c3ccccc23)NC1=O` [Example 76, Cyclo[-D-Asp-Glu(R3)-Asp-D-Leu-Leu-D-Trp-]] (cyclo(D[dL]L[dW][dD]E(X2))) showed an IC50 in data set [2] of 10 µM.
On the same count and under the same terms, with `CC(C)C[C@@H]1NC(=O)[C@@H](CC(C)C)NC(=O)[C@H](CC(=O)O)NC(=O)[C@H](CC(=O)N[C@@H](Cc2c[nH]c3ccccc23)C(=O)NCc2ccccc2)NC(=O)[C@@H](CC(=O)O)NC(=O)[C@@H](Cc2c[nH]c3ccccc23)NC1=O` [Example 92, Cyclo[-D-Asp-Asp(Trp-NHBzl)-Asp-D-Leu-Leu-D-Trp-]] (cyclo(D([Trp-NHBn])D[dL]L[dW][dD])) the figure was 4 µM.
In data set [2], `CC(C)C[C@@H]1NC(=O)[C@@H](CC(C)C)NC(=O)[C@H](CC(=O)O)NC(=O)[C@H](CC(=O)N[C@@H](Cc2c[nH]c3ccccc23)C(=O)NCCc2ccccc2)NC(=O)[C@@H](CC(=O)O)NC(=O)[C@@H](Cc2c[nH]c3ccccc23)NC1=O` [Example 94, Cyclo[-D-Asp-Asp(Trp-NHCH2CH2Ph)-Asp-D-Leu-Leu-D-Trp-]] (cyclo(D([Trp-NHPhenethyl])D[dL]L[dW][dD])) showed an IC50 of 5.8 µM.
`CC(C)C[C@@H]1NC(=O)[C@@H](c2cccs2)NC(=O)[C@H](CC(=O)O)NC(=O)[C@H](CCC(=O)NCc2ccccc2)NC(=O)[C@@H](CC(=O)O)NC(=O)[C@@H](Cc2c[nH]c3ccccc23)NC1=O` [cyclo[-D-Asp-Gln(Bzl)-Asp-D-Thg(2)-Leu-D-Trp-]] registered a ring closure, yield of all isomers in data set [4] (from CC(C)C[C@H](NC(=O)[C@H](NC(=O)OC(C)(C)C)c1cccs1)C(=O)N[C@H](Cc1c[nH]c2ccccc12)C(=O)N[C@H](CC(=O)OCc1ccccc1)C(=O)N[C@@H](CCC(=O)NCc1ccccc1)C(=O)N[C@@H](CC(=O)OCc1ccccc1)C(=O)O, 5.06 mM) of 8.8%.
On to `CC(C)C[C@@H]1NC(=O)[C@@H](c2cccs2)NC(=O)[C@H](CC(=O)O)NC(=O)[C@@H]2C[C@@H](OCc3ccccc3)CN2C(=O)[C@@H](CC(=O)O)NC(=O)[C@@H](Cc2c[nH]c3ccccc23)NC1=O` [cyclo[-D-Asp-Hyp(Bzl)-Asp-D-Thg(2)-Leu-D-Trp-]], for which the ring closure, yield of all isomers in data set [4] (from CC(C)C[C@H](NC(=O)[C@H](NC(=O)OC(C)(C)C)c1cccs1)C(=O)N[C@H](Cc1c[nH]c2ccccc12)C(=O)N[C@H](CC(=O)OCc1ccccc1)C(=O)N1C[C@H](OCc2ccccc2)C[C@H]1C(=O)N[C@@H](CC(=O)OCc1ccccc1)C(=O)O, 4.98 mM) was 5.7%.
In data set [4] (from CC(C)C[C@H](NC(=O)[C@@H](CC(C)C)NC(=O)[C@H](CC(=O)OCc1ccccc1)NC(=O)[C@H](CCCNC(=O)c1ccccc1)NC(=O)OC(C)(C)C)C(=O)N[C@H](Cc1c[nH]c2ccccc12)C(=O)N[C@H](CC(=O)OCc1ccccc1)C(=O)O, 5.03 mM), `CC(C)C[C@@H]1NC(=O)[C@@H](CC(C)C)NC(=O)[C@H](CC(=O)O)NC(=O)[C@H](CCCNC(=O)c2ccccc2)NC(=O)[C@@H](CC(=O)O)NC(=O)[C@@H](Cc2c[nH]c3ccccc23)NC1=O` [cyclo[-D-Asp-Orn(COPh)-Asp-D-Leu-Leu-D-Trp-]] showed a ring closure, yield of all isomers of 48.1%.
In data set [5], “cyclo[-D-Asp(OBzl)-Asn(NHCH2CH2Ind)-Asp(OBzl)-D-Thg(2)-Leu-D-Trp-]” gave a ring closure, crude yield of 90.4%.
Regarding “cyclo[-D-Asp(OBzl)-Hyp(Bzl)-Asp(OBzl)-D-Leu-Leu-D-Trp-]”, in data set [6], the ring closure, isolated yield came out at 82.6%.

These data come from patent EP0552417B1, “Cyclic peptides and use thereof” (priority 1991, dated 1993).
